Several values for one entry are separate records, joined by “and”; a condition that tells them apart may be missing. Equal values may be shown once. Read-outs that look alike come from different tables or passages of the source.

The test system of series [1] is H-9 cells. As to the kind of experiment: Cytotoxicity on H-9 cells. The following applies: H-9 cells; same conditions as AZT. The format is cell-based. From the text:
(§1) The purified and identified analogs were subjected to in vitro biological testing.
These three congeners were further evaluated in H9 and PC3 cells. AZT was employed as a positive control in all of these experiments.

For series [2], the system named is MCF-7 cells. As to the kind of experiment: Cytotoxicity on MCF-7 cells. The series is classed as cell-based. The following applies: for Cells (×10^4) Mean / Cells (×10^4): Table 17, 12-12 to 12-16/2005; for % Inhibition / inhibition at 1 µg/mL / inhibition at 5 µg/mL / inhibition at 10 µg/mL / inhibition at 50 µg/mL: vs 2% DMSO, Table 17; for inhibition at 1 µg/mL / inhibition at 5 µg/mL / inhibition at 10 µg/mL / inhibition at 50 µg/mL: Homo sapiens; for inhibition at 1 µg/mL: MCF7, 1 μg/ml; for inhibition at 5 µg/mL: MCF7, 5 μg/ml; for inhibition at 10 µg/mL: MCF7, 10 μg/ml; for inhibition at 50 µg/mL: MCF7, 50 μg/ml.

Series [3] deals with PC-3 cells. Briefly: Cytotoxicity on PC-3 cells. The format is cell-based. To be noted: PC-3 cells; same conditions as AZT.
From the text: as §1

Series [4] has as its system benzodiazepine receptor. The following applies: cited from earlier work.
The conditions of series [5]: attributed to 3-OH group; cited from earlier work.
The test system of series [6] is multidrug resistant cells. To be noted: collateral sensitivity; cited from earlier work.
Where [7] appears, read: single count, read-out: % Inhibition.

A word on the % Inhibition: it is the drop in the measured response relative to a control, in per cent. The inhibition is the percentage by which the read-out fell short of the control. `COc1cc(C=CC(=O)c2cc(C)cc([N+](=O)[O-])c2O)cc(OC)c1OC` (stereo in doubt) [CHNM 3M]: the “inhibitory activity / growth inhibition compared to AZT” value in series [1] is recorded as “much superior”; in series [2] (MCF-7 cells, same conditions as AZT), “much superior”; in series [3], “much superior”. In addition, the “Cells (×10^4) Mean” value in series [2] (1 μg/ml) is recorded as 44.50 ×10^4; in series [2] (5 μg/ml), 24.75 ×10^4; in series [2] (10 μg/ml), 4.92 ×10^4; in series [2] (50 μg/ml) it was 1.75 ×10^4. The “% Inhibition” value in series [2] (1 μg/ml, single count) is 11.62%; in series [2] (5 μg/ml, single count), 52.86% and 51.88%; in series [2] (10 μg/ml, single count) it was 90.67%; in series [2] (50 μg/ml, single count), 96.07% and 97.05%. The “Cells (×10^4)” value in series [2] (1 μg/ml, single count) is 44.3 ×10^4 and 45.0 ×10^4; in series [2] (5 μg/ml, single count), 25.8 ×10^4 and 24.0 ×10^4 and 24.5 ×10^4; in series [2] (10 μg/ml, single count), 5.0 ×10^4 and 4.8 ×10^4; in series [2] (50 μg/ml, single count) it was 1.8 ×10^4 and 2.0 ×10^4 and 1.5 ×10^4. In addition, the inhibition at 1 µg/mL in series [2] (setting [7]) worked out at 13.1%; in series [2] (read-out: % Inhibition Mean), 12.6%. Further, the inhibition at 5 µg/mL came to 49.4% in series [2] (setting [7]) and 51.4% in series [2] (read-out: % Inhibition Mean). The inhibition at 10 µg/mL worked out at 90.2% in series [2] (setting [7]) and 90.3% in series [2] (read-out: % Inhibition Mean). Besides, the inhibition at 50 µg/mL in series [2] (setting [7]) and in series [2] (read-out: % Inhibition Mean) was 96.6% in each case. In addition, the “cytotoxic activities on MCF-7 cells” value in series [2] (different drug concentrations) is on record as “good cytotoxic activities”.

With `O=c1cc(-c2cccc([N+](=O)[O-])c2)oc2ccc(Br)cc12` [6-bromo-3′-nitroflavone], the “activity as benzodiazepine receptor ligand compared to diazepam” value in series [4] was “close or higher than that of diazepam”.

As to `O=c1cc(-c2ccccc2)oc2ccc(Br)cc12` [6-bromoflavone], the “activity as benzodiazepine receptor ligand compared to diazepam” value in series [4] was “close or higher than that of diazepam”.

Regarding `O=c1c(O)c(-c2ccc(O)c(O)c2)oc2cc(O)cc(O)c12` [quercetin], the mutagenic properties entry in series [5] is recorded as “some mutagenic properties”.

On to `O=c1cc(-c2ccccc2)oc2ccc3ccccc3c12` [β-naphthoflavone], for which, in series [6], the “toxicity to multidrug resistant cells vs drug-sensitive counterparts” value is on record as “considerably more toxic to multidrug resistant cells than to their drug-sensitive counterparts”.

The values are drawn from patent US20090312407A1, “Synthetic Flavonoids and Pharmaceutical Compositions and Therapeutic Methods of Treatment of Cancer and other Pathologies” (priority 2007, published 2009).
